IC50 data for 34 compounds are collected here from patent US7582645B2, “Pyrimidine derivatives for treatment of hyperproliferative disorders” (Bayer Pharmaceuticals Corporation, priority 2003, dated 2009).

In the first test the test system is HCT116 cells. Briefly: HCT116 cytotoxic activity assay (Alamar Blue, 72 h). It is filed as cell-based. The conditions noted are these: Homo sapiens, HCT-116, 72 h compound exposure, greater than 500 nM but less than or equal to 2 μM. As to the method: Representative compounds of this invention were tested for cytotoxicity using the above-described assay procedure with the following results: […]
With `Cc1cc(Oc2ccc(Nc3cc(-c4cccc(OC(F)(F)F)c4)nc(N)n3)cc2)ccn1` [Example 325, N4*-{4-[(2-methylpyridin-4-yl)oxy]phenyl}-6-[3-(trifluoromethoxy)phenyl]pyrimidine-2,4-diamine], the IC50 lay in the range of 500 to 2000 nM. Still for that read-out and setting: as for `N#Cc1cc(Oc2ccc(Nc3cc(-c4ccccc4N)nc(N)n3)cc2)ccn1` [Example 243, 4-(4-{[2-amino-6-(2-aminophenyl)pyrimidin-4-yl]amino}phenoxy) pyridine-2-carbonitrile], the figure is 500 to 2000 nM. On the same count and under the same terms, the same measure for `Nc1nc(Nc2ccc(Oc3ccnc(OCCN4CCOCC4)c3)cc2)cc(-c2ccccc2)n1` [Example 32, N^4-{4-[2-(2-morpholin-4-yl-ethoxy)-pyridin-4-yloxy]-phenyl}-6-phenyl-pyrimidine-2,4-diamine]: 500 to 2000 nM; for `CSc1ccc(-c2cc(Nc3ccc(Oc4ccnc(C#N)c4)cc3)nc(N)n2)cc1` [Example 231, 4-[4-({2-amino-6-[4-(methylthio)phenyl]pyrimidin-4-yl}amino)phenoxy]pyridine-2-carbonitrile]: 500 to 2000 nM. Same read-out and setting: the same measure for `CN(C)CCOc1cc(Oc2ccc(Nc3cc(-c4ccccc4)nc(N)n3)cc2)ccn1` [Example 85, N^4-[4-({2-[2-(dimethylamino)ethoxy]pyridin-4-yl}oxy)phenyl]-6-phenylpyrimidine-2,4-diamine]: 500 to 2000 nM; for `CCN(CC)CCCNc1cc(Oc2ccc(Nc3cc(-c4ccccc4)nc(N)n3)cc2)ccn1` [Example 141, N4*-{4-[(2-{[3-(diethylamino)propyl]amino}pyridin-4-yl)oxy]phenyl}-6-phenylpyrimidine-2,4-diamine]: 500 to 2000 nM; for `COc1ccc(-c2cc(Nc3ccc(Oc4ccnc(C#N)c4)cc3)nc(N)n2)cc1N` [Example 172, 4-(4-{[2-amino-6-(3-amino-4-methoxyphenyl)pyrimidin-4-yl]amino}phenoxy)pyridine-2-carbonitrile]: 500 to 2000 nM. `N#Cc1cc(Oc2ccc(Nc3cc(-c4ccc(Cl)cc4)nc(N)n3)cc2)ccn1` [Example 242, 4-(4-{[2-amino-6-(4-chlorophenyl)pyrimidin-4-yl]amino}phenoxy) pyridine-2-carbonitrile] yielded an IC50 of 500 to 2000 nM.

The test is the same for the next values; noted with them: Homo sapiens, HCT-116, 72 h compound exposure, greater than 2 μM.
In the case of `CNC(=O)c1cc(Oc2cccc(Nc3cc(-c4ccc(OC)cc4)nc(N)n3)c2)ccn1` [Example 77, 4-(3-{[2-amino-6-(4-methoxyphenyl)pyrimidin-4-yl]amino}phenoxy)-N-methylpyridine-2-carboxamide], the IC50 was more than 2000 nM.

With `NC(=O)c1cc(Oc2ccc(Nc3cc(-c4ccc(-c5ccccc5)c(F)c4)nc(N)n3)cc2)ccn1` [Example 260, 4-(4-{[2-amino-6-(2-fluorobiphenyl-4-yl)pyrimidin-4-yl]amino}phenoxy) pyridine-2-carboxamide], the IC50 is more than 2000 nM. On the same count and under the same terms, as for `CC(=O)c1ccc(Oc2ccc(Nc3cc(-c4ccccc4)nc(N)n3)cn2)cc1` [Example 87, 1-[4-({5-[(2-amino-6-phenylpyrimidin-4-yl)amino]pyridin-2-yl}oxy)phenyl]ethanone], the figure is more than 2000 nM; as for `COc1ccc(-c2cc(Nc3ccc(Oc4ccnc(C#N)c4)cc3)nc(N)n2)cc1` [Example 225, 4-(4-{[2-amino-6-(4-methoxyphenyl)pyrimidin-4-yl]amino}phenoxy) pyridine-2-carbonitrile 4-(4-{[6-amino-2-(4-methoxyphenyl)pyrimidin-4-yl]amino}phenoxy) pyridine-2-carbonitrile], more than 2000 nM; as for `Nc1nc(Nc2ccc(Oc3ccnc(C(F)(F)F)c3)cc2)cc(-c2ccc(OC(F)(F)F)cc2)n1` [Example 217, 6-[4-(trifluoromethoxy)phenyl]-N4*- (4-{[2-(trifluoromethyl)pyridin-4-yl]oxy}phenyl)pyrimidine-2,4-diamine], more than 2000 nM. On the same count and under the same terms, the same measure for `CCC(CC)NCc1cc(Oc2ccc(Nc3cc(-c4ccccc4)nc(N)n3)cc2)ccn1` [Example 110, N4*-{4-[(2-{[(1-ethylpropyl)amino]methyl}pyridin-4-yl)oxy]phenyl}-6-phenylpyrimidine-2,4-diamine]: more than 2000 nM; for `Cc1cc(Oc2ccc(Nc3cc(-c4cccc(C(F)(F)F)c4)nc(N)n3)cc2)ccn1` [Example 314, N4*-{4-[(2-methylpyridin-4-yl)oxy]phenyl}-6-[3-(trifluoromethyl)phenyl] pyrimidine-2,4-diamine]: more than 2000 nM. On the same count and under the same terms, the same measure for `CC(C)c1cccc(-c2cc(Nc3cccc(Oc4ccnc(C(N)=O)c4)c3)nc(N)n2)c1` [Example 299, 4-(3-{[2-amino-6-(3-isopropylphenyl)pyrimidin-4-yl]amino}phenoxy) pyridine-2-carboxamide]: more than 2000 nM.

The test is the same for the next values; noted with them: Homo sapiens, HCT-116, 72 h compound exposure, less than or equal to 500 nM.
`N#Cc1cc(Oc2ccc(Nc3cc(-c4ccc(O)cc4)nc(N)n3)cc2)ccn1` [Example 227, 4-(4-{[2-amino-6-(4-hydroxyphenyl)pyrimidin-4-yl]amino}phenoxy) pyridine-2-carbonitrile 4-(4-{[6-amino-2-(4-hydroxyphenyl)pyrimidin-4-yl]amino}phenoxy) pyridine-2-carbonitrile] yielded an IC50 not above 500 nM. The same measure, in the same setting: the same measure for `CCc1ccccc1-c1cc(Nc2ccc(Oc3ccnc(CN)c3)cc2)nc(N)n1` [Example 163, N4*-(4-{[2-(aminomethyl)pyridin-4-yl]oxy}phenyl)-6-(2-ethylphenyl)pyrimidine-2,4-diamine]: not above 500 nM; for `NC(=O)c1cc(Oc2ccc(Nc3cc(-c4cccc(N)c4)nc(N)n3)cc2)ccn1` [Example 254, 4-(4-{[2-amino-6-(3-aminophenyl)pyrimidin-4-yl]amino}phenoxy) pyridine-2-carboxamide]: not above 500 nM; for `N#Cc1cc(Oc2ccc(Nc3cc(-c4ccoc4)nc(N)n3)cc2)ccn1` [Example 228, 4-(4-{[2-amino-6-(3-furyl)pyrimidin-4-yl]amino}phenoxy)pyridine-2-carbonitrile 4-(4-{[6-amino-2-(3-furyl)pyrimidin-4-yl]amino}phenoxy) pyridine-2-carbonitrile]: not above 500 nM. Consider `Nc1nc(Nc2ccc(Oc3ccnc(C(F)(F)F)c3)cc2)cc(-c2cccc(CO)c2)n1` [Example 205, (3-{2-amino-6-[(4-{[2-(trifluoromethyl)pyridin-4-yl]oxy}phenyl)amino]pyrimidin-4-yl}phenyl) methanol], for which the IC50 was not above 500 nM.

The compound `Cc1cc(Oc2ccc(Nc3cc(-c4ccc(O)cc4)nc(N)n3)cc2)ccn1` [Example 310, 4-[2-amino-6-({4-[(2-methylpyridin-4-yl)oxy]phenyl}amino)pyrimidin-4-yl]phenol] registered an IC50 not above 500 nM. Same read-out and setting: the same measure for `CCCCc1ccc(-c2cc(Nc3ccc(Oc4ccnc(C(N)=O)c4)cc3)nc(N)n2)cc1` [Example 259, 4-(4-{[2-amino-6-(4-butylphenyl)pyrimidin-4-yl]amino}phenoxy) pyridine-2-carboxamide]: not above 500 nM. Still for that read-out and setting: as for `Cc1ccc(-c2cc(Nc3ccc(Oc4ccnc(C#N)c4)cc3)nc(N)n2)cc1N` [Example 252, 4-(4-{[2-amino-6-(3-amino-4-methylphenyl)pyrimidin-4-yl]amino}phenoxy)pyridine-2-carbonitrile], the figure is not above 500 nM; as for `CNC(=O)c1cc(Oc2cccc(Nc3cc(-c4ccoc4)nc(N)n3)c2)ccn1` [Example 9, 4-(3-{[2-amino-6-(3-furyl)pyrimidin-4-yl]amino}phenoxy)-N-methylpyridine-2-carboxamide], not above 500 nM.

As to `Cc1cccc(-c2cc(Nc3ccc(Oc4ccnc(C#N)c4)cc3)nc(N)n2)c1` [Example 250, 4-(4-{[2-amino-6-(3-methylphenyl)pyrimidin-4-yl]amino}phenoxy) pyridine-2-carbonitrile], the IC50 was not above 500 nM.

Regarding `NC(=O)c1cc(Oc2ccc(Nc3cc(-c4ccccc4)nc(N)n3)cc2)ccn1` [Example 69, 4-{4-[(2-amino-6-phenylpyrimidin-4-yl)amino]phenoxy} pyridine-2-carboxamide], the IC50 was not above 500 nM.

With `CCc1ccc(-c2cc(Nc3ccc(Oc4ccnc(C)c4)cc3)nc(N)n2)cc1` [Example 317, 6-(4-ethylphenyl)-N4*-{4-[(2-methylpyridin-4-yl)oxy]phenyl} pyrimidine-2,4-diamine], the half-maximal inhibitory concentration (IC50) is not above 500 nM. Still for that read-out and setting: the same measure for `Nc1nc(Nc2ccc(Cc3ccnc(Cl)c3)cc2)cc(-c2ccccc2)n1` [Example 34, N4*-{4-[(2-chloropyridin-4-yl)methyl]phenyl}-6-phenylpyrimidine-2,4-diamine]: not above 500 nM; for `Nc1nc(Nc2ccc(Oc3ccnc(C(F)(F)F)c3)cc2)cc(-c2ccccc2OC(F)(F)F)n1` [Example 161, 6-[2-(trifluoromethoxy)phenyl]-N4*-(4-{[2-(trifluoromethyl)pyridin-4-yl]oxy}phenyl)pyrimidine-2,4-diamine]: not above 500 nM; for `N#Cc1cc(Oc2ccc(Nc3cc(-c4ccc(N)cc4)nc(N)n3)cc2)ccn1` [Example 229, 4-(4-{[2-amino-6-(4-aminophenyl)pyrimidin-4-yl]amino}phenoxy) pyridine-2-carbonitrile 4-(4-{[6-amino-2-(4-aminophenyl)pyrimidin-4-yl]amino}phenoxy)pyridine-2-carbonitrile]: not above 500 nM. In turn, `CN(C)C(=O)NCc1cc(Oc2ccc(Nc3cc(-c4ccccc4)nc(N)n3)cc2)ccn1` [Example 99, N′-[(4-{4-[(2-amino-6-phenylpyrimidin-4-yl)amino]phenoxy}pyridin-2-yl)methyl]-N,N-dimethylurea] gave an IC50 not above 500 nM.

Compound `Cc1cc(Oc2ccc(Nc3cc(-c4ccc(C)c(N)c4)nc(N)n3)cc2)ccn1` [Example 323, 6-(3-amino-4-methylphenyl)-N4*-{4-[(2-methylpyridin-4-yl)oxy]phenyl} pyrimidine-2,4-diamine] displayed an IC50 not above 500 nM. The same measure, in the same setting: as for `Cc1cc(Oc2ccc(Nc3cc(-c4ccc(F)cc4)nc(N)n3)cc2)ccn1` [Example 282, 6-(4-fluorophenyl)-N4*-{4-[(2-methylpyridin-4-yl)oxy]phenyl} pyrimidine-2,4-diamine], the figure is not above 500 nM.
